Data reported in PubChem BioAssay (NCI).
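Five concentrations, 48 hours, 96-well plates. GI50 is the concentration that inhibits growth by half. TGI denotes the concentration required for complete inhibition of growth.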

Experiments:
Test in all cases: DTP human tumour cell line panel, 48 h
MDA-MB-435 = test system: MDA-MB-435
MDA-MB-231 breast = test system: MDA-MB-231 breast
HCT-15 colon = test system: HCT-15 colon
SF-295 CNS = test system: SF-295 CNS
SW-620 colon = test system: SW-620 colon
MCF7 breast = test system: MCF7 breast
COLO 205 colon = test system: COLO 205 colon
OVCAR-3 ovarian = test system: OVCAR-3 ovarian
NCI-H226 lung = test system: NCI-H226 lung
SK-OV-3 ovarian = test system: SK-OV-3 ovarian
SNB-19 CNS = test system: SNB-19 CNS
BT-549 breast = test system: BT-549 breast

Row | Structure (SMILES) | TGI (MDA-MB-435) | TGI (MDA-MB-231 breast) | TGI (HCT-15 colon) | TGI (SF-295 CNS) | TGI (SW-620 colon) | TGI (MCF7 breast) | TGI (COLO 205 colon) | TGI (OVCAR-3 ovarian) | TGI (NCI-H226 lung) | TGI (SK-OV-3 ovarian) | TGI (SNB-19 CNS) | TGI (BT-549 breast) | GI50 (SF-295 CNS) | GI50 (OVCAR-3 ovarian) | GI50 (NCI-H226 lung) | GI50 (MDA-MB-231 breast) | GI50 (SK-OV-3 ovarian)
1 | CSC1=N/C(=C\c2cccs2)C(=O)N1CN1CCOCC1 | > 100 µM | > 100 µM | > 100 µM | > 100 µM | > 100 µM | > 100 µM | > 100 µM | > 100 µM | > 100 µM | > 100 µM | > 100 µM |  |  |  |  |  | 
2 | COC1/C=C/C(C)C(OC)CC(O)/C=C/C(C)C(C(C)C(OC)C(C)CCC(=O)C(C)C(C/C=C/N(C)C=O)OC)OC(=O)/C=C/C=C(\C)CC(OC)C(OC)C2=CC(=O)O[C@@H](C(C)C(OC)C1)[C@H]2O (stereo not given in full) | 0.195 µM | 0.0835 µM |  | 0.0797 µM |  | 0.17 µM |  | 0.0489 µM | 0.0714 µM | 0.104 µM | 0.244 µM | 0.163 µM |  |  |  |  | 
3 | NCCCNCCSSCc1ccccc1CSSCCNCCCN |  |  | > 100 µM | > 100 µM | > 100 µM |  | > 100 µM | > 100 µM |  | > 100 µM | > 100 µM |  |  |  |  |  | 
4 | CCN(CC)CCNc1ccc([N+](=O)[O-])c2nc3ccccc3c(N)c12 | 1.67 µM | 2.4 µM | 1.75 µM | 1.75 µM | 1.91 µM |  | 1.47 µM | 5.13 µM | 5.62 µM |  |  | 2.38 µM |  |  |  |  | 
5 | Cc1cccc2c1Oc1cc(Cl)ccc1C2NC(=O)CCN1CCCCC1 (stereo not given) | 30.7 µM | 39 µM | 32.7 µM | 33.1 µM | 34.9 µM | 33.6 µM | 34.6 µM |  |  |  | 33 µM | 33.4 µM |  |  |  |  | 
6 | CN1CCc2c(sc3nc(Nc4ccccc4)n(N)c(=O)c23)C1 |  | > 100 µM | > 100 µM | > 100 µM |  | > 100 µM | > 100 µM | > 100 µM | > 100 µM |  | > 100 µM | > 100 µM |  |  |  |  | 
7 | NC(CCCCCP(=O)(O)O)C(=O)O (stereo not given) | > 100 µM | > 100 µM | > 100 µM | > 100 µM | > 100 µM |  | > 100 µM | > 100 µM |  | > 100 µM | > 100 µM | > 100 µM |  |  |  |  | 
8 | Cc1c2c(c(C)c3c[n+](C)ccc13)Oc1ccccc1O2 | 34.1 µM | > 69.8 µM | > 100 µM | > 80.4 µM | > 52.8 µM | > 63 µM | > 52.9 µM | 17.5 µM | > 43.8 µM | > 84.5 µM | 12.7 µM |  |  |  |  |  | 
9 | CN(C)C(=S)Nc1nnc(NC23CC4CC(CC(C4)C2)C3)s1 |  |  | 28.8 µM | 30.7 µM | 38.3 µM |  | 44.1 µM | 46.3 µM | 38.4 µM | 80.1 µM | 41.2 µM |  |  |  |  |  | 
10 | CCOC(=O)C(Cc1ccc2c(c1)CCC2)(Cc1ccc2c(c1)CCC2)C(=O)OCC | > 100 µM | > 100 µM | > 100 µM | > 100 µM | > 100 µM | > 100 µM |  | > 100 µM |  | > 100 µM | > 100 µM |  |  |  |  |  | 
11 | C=C1C(=O)OC2/C=C(\C)CC/C=C(/C)CC(OC(=O)/C(=C/CO)CO)C12 (stereo not given) | 82.5 µM |  | 37.7 µM | > 100 µM | 63.1 µM | 48.7 µM | 33 µM | > 100 µM |  | > 100 µM | > 100 µM | 30.9 µM |  |  |  |  | 
12 | CN(C)c1cccc(-c2cc(=O)c3ccccc3[nH]2)c1 |  |  | > 100 µM | > 100 µM | > 100 µM |  | > 100 µM | > 100 µM | 66.9 µM | > 100 µM | > 100 µM |  | 28 µM | 42.1 µM | 29.4 µM |  | 
13 | Cc1ccc2nc3c(C(=O)NCCN(C)C)cccc3cc2c1 |  |  | 4.91 µM | 7.14 µM | 5.45 µM | 11.6 µM | 3.25 µM | 5.83 µM | 3.6 µM | 6.66 µM | 6.34 µM |  |  |  |  |  | 
14 | NNC(N)=Nc1cccc2ccccc12 | > 100 µM | > 100 µM | > 100 µM | > 100 µM | > 100 µM | > 100 µM | > 100 µM |  | > 100 µM | > 100 µM | > 100 µM |  |  |  |  |  | 
15 | O=C(CSc1nc2ccc(I)cc2c(=O)n1Cc1ccccc1)N/N=C/c1ccccc1 | > 100 µM | 43.3 µM | > 100 µM | 30.9 µM | > 100 µM | > 100 µM | > 100 µM | 33.6 µM | 95.9 µM | 31.6 µM | 49.1 µM |  |  |  |  |  | 
16 | CSc1ccc2c(c1)c(CCN)c(C)n2Cc1ccc(Cl)c(Cl)c1 |  | 3.39 µM |  | 3.22 µM |  |  |  | 3.15 µM |  | 3.09 µM |  |  | 1.69 µM | 1.7 µM |  | 1.69 µM | 1.69 µM
17 | CC(/C=C/c1ncccc1OCCCCCC(=O)O)=N\NC1=NCCN1 |  |  | > 100 µM | > 100 µM | > 100 µM |  | > 100 µM | > 100 µM | > 100 µM | > 100 µM | > 100 µM |  |  |  |  |  | 
18 | C#CCNC(=O)CCC(N)C(=O)O (stereo not given) |  |  | > 100 µM | > 100 µM | > 100 µM | > 100 µM | > 100 µM | > 100 µM | > 100 µM | > 100 µM | > 100 µM |  |  |  |  |  | 
19 | O=C(NC(=O)c1cn(CCN2CCNCC2)c(=O)[nH]c1=O)OCc1ccccc1 |  |  | > 100 µM | > 100 µM | > 100 µM |  | > 100 µM | > 100 µM | > 100 µM | > 100 µM |  |  |  |  |  |  | 
20 | CCCCCCc1nn2c(-c3ccc(C)cc3)nnc2s1 | > 100 µM | > 100 µM | > 100 µM | > 100 µM | > 100 µM | > 100 µM | > 100 µM | > 100 µM |  | > 100 µM | > 100 µM | > 100 µM |  |  |  |  | 
21 | CC(C)OP(=O)(OC(C)C)C(C(F)(F)F)C(F)(F)F | > 100 µM |  | > 100 µM | > 100 µM | > 100 µM | > 100 µM | > 100 µM | > 100 µM | > 100 µM | > 100 µM | > 100 µM | > 100 µM |  |  |  |  | 
22 | CC(=O)OCC1C(C(C)OC(C)=O)CCC2C1CCC1(C)C(OC(C)=O)CCC21 (stereo not given) | 34.6 µM | 30.7 µM | 36.5 µM | 41.4 µM | 38.2 µM | 33.8 µM |  | 41.9 µM | 33.6 µM |  | 42.5 µM | 24.5 µM |  |  |  |  | 
23 | COc1ccc2c(=O)c([Se]c3coc4cc(OC)ccc4c3=O)coc2c1 |  |  | > 100 µM | > 100 µM | > 100 µM |  | > 100 µM | > 100 µM | > 100 µM | > 100 µM | > 100 µM |  |  |  |  |  | 
